Experimental findings from patent US20050288273A1, “Antibacterial agents” (priority 2003, published 2005) are described below.

Values after ≈ are worked out from the molar mass of the structure shown. Bounds are passed on as bounds.

In one data set the test system is M. catarrhalis BC3534. The data set is described as follows: Antibacterial assay (MIC), standard microtitration, Gram negative. Format: cell-based. Conditions: Gram negative bacteria; for MIC: Moraxella catarrhalis, BC3534, read-out: Minimum Inhibitory Concentrations M. catarrhalis BC3534. The source says: (§1) Test A—Antibacterial Assays
Another data set has as its system E. coli Tol C. Described as above. The class given is cell-based. To be noted: for Minimum Inhibitory Concentrations E. coli Tol C: Gram negative bacteria; for MIC: Escherichia coli, read-out: Minimum Inhibitory Concentrations E. coli Tol C.
Source text: as §1

In another data set the test system is H. influenzae HI3542. The data set is described as above. Format: cell-based. To be noted: Gram negative bacteria; for MIC: Haemophilus influenzae, HI3542, read-out: Minimum Inhibitory Concentrations H. influenzae HI3542.
Source text: as §1

Another data set deals with E. faecalis MGH-2. The data set is described as follows: Antibacterial assay (MIC), standard microtitration, Gram positive. Format: cell-based. Conditions: Gram positive bacteria; for MIC: Enterococcus faecalis, MGH2, read-out: Minimum Inhibitory Concentrations E. faecalis MGH-2.
Source text: as §1

A further data set has as its system S pyogenes C203. Described as above. Format: cell-based. To be noted: Gram positive bacteria; for MIC: read-out: Minimum Inhibitory Concentrations S pyogenes C203.
Source text: as §1

Another data set concerns S. aureus UC-76. Described as above. Format: cell-based. To be noted: Gram positive bacteria; for MIC: Staphylococcus aureus, UC76, read-out: Minimum Inhibitory Concentrations S. aureus UC-76.
Source text: as §1

What is called melting point is the temperature, or range, at which the solid turns liquid.

In turn, `CC(=S)NC[C@H]1CN(c2ccc3c(c2)CCCc2cnoc2-3)C(=O)O1` had a melting point of 185 to 195 °C.

In turn, `CC(=S)NC[C@H]1CN(c2ccc3c(c2)CCCc2cn[nH]c2-3)C(=O)O1` came in with a melting point of 190 to 195 °C.

Consider `CC(C)(C)OC(=O)NC[C@H]1CN(c2ccc3c(c2)CCCc2cnoc2-3)C(=O)O1`, for which the melting point is 180 to 184 °C.

`Cl.NC[C@H]1CN(c2ccc3c(c2)CCCc2cnoc2-3)C(=O)O1` displayed a melting point of 245 to 258 °C.

`Cl.NC[C@H]1CN(c2ccc3c(c2)CCCc2cn[nH]c2-3)C(=O)O1` returned a melting point of 201 to 223 °C.

Regarding `CCC(=O)NC[C@H]1CN(c2ccc3c(c2)CCCc2cnoc2-3)C(=O)O1`, the melting point was 185 to 186 °C.

In turn, `CC(C)C(=O)NC[C@H]1CN(c2ccc3c(c2)CCCc2cnoc2-3)C(=O)O1` registered a melting point of 187 to 193 °C.

`O=C(NC[C@H]1CN(c2ccc3c(c2)CCCc2cnoc2-3)C(=O)O1)C1CC1`: the melting point was in the range of 211 to 215 °C.

`O=C(CC1CC1)NC[C@H]1CN(c2ccc3c(c2)CCCc2cnoc2-3)C(=O)O1` had a melting point of 187 to 191 °C.

With `O=C(CC1CCCC1)NC[C@H]1CN(c2ccc3c(c2)CCCc2cnoc2-3)C(=O)O1`, the melting point is 193 to 195 °C.

`COC(=O)CC(=O)NC[C@H]1CN(c2ccc3c(c2)CCCc2cnoc2-3)C(=O)O1` yielded a melting point of 205 to 217 °C.

As for `O=C(NC[C@H]1CN(c2ccc3c(c2)CCCc2cnoc2-3)C(=O)O1)c1ccccc1`, the melting point fell in the range of 240 to 245 °C.

`O=C(CC(F)(F)F)NC[C@H]1CN(c2ccc3c(c2)CCCc2cnoc2-3)C(=O)O1` yielded a melting point of 150 to 186 °C.

Take `O=C(NC[C@H]1CN(c2ccc3c(c2)CCCc2cnoc2-3)C(=O)O1)C(F)F`: the melting point fell in the range of 145 to 180 °C.

In the case of `CC(C)C(=O)NC[C@H]1CN(c2ccc3c(c2)CCCc2cnn(C(=O)C(C)C)c2-3)C(=O)O1`, the melting point is 75 to 80 °C.

For the compound `O=C(CC1CCCC1)NC[C@H]1CN(c2ccc3c(c2)CCCc2cnn(C(=O)CC4CCCC4)c2-3)C(=O)O1`, the melting point was in the range of 165 to 167 °C.

Consider `O=C(NC[C@H]1CN(c2ccc3c(c2)CCCc2cnn(C(=O)c4ccccc4)c2-3)C(=O)O1)c1ccccc1`, for which the melting point lay in the range of 75 to 95 °C.

Compound `O=C(NC[C@H]1CN(c2ccc3c(c2)CCCc2cn[nH]c2-3)C(=O)O1)C(F)F` showed a melting point of 147 to 150 °C.

In turn, `CCC(=O)NC[C@H]1CN(c2ccc3c(c2)CCCc2cn[nH]c2-3)C(=O)O1` showed a melting point of 233 to 235 °C.

On to `O=C(NC[C@H]1CN(c2ccc3c(c2)CCCc2cn[nH]c2-3)C(=O)O1)C1CC1`, for which the melting point was 224 to 227 °C.

In turn, `O=C(CC1CC1)NC[C@H]1CN(c2ccc3c(c2)CCCc2cn[nH]c2-3)C(=O)O1` displayed a melting point of 212 to 215 °C.

As for `O=C(CC1CCCC1)NC[C@H]1CN(c2ccc3c(c2)CCCc2cn[nH]c2-3)C(=O)O1`, the melting point was 205 to 208 °C.

With `O=C(NC[C@H]1CN(c2ccc3c(c2)CCCc2cn[nH]c2-3)C(=O)O1)c1ccccc1`, the melting point lay within 105 to 125 °C.

The compound `O=C(CC(F)(F)F)NC[C@H]1CN(c2ccc3c(c2)CCCc2cn[nH]c2-3)C(=O)O1` gave a melting point of 243 to 245 °C.

As to `COC(=O)NC[C@H]1CN(c2ccc3c(c2)CCCc2cnoc2-3)C(=O)O1`, the melting point is 166 to 168 °C.

For `CCOC(=O)NC[C@H]1CN(c2ccc3c(c2)CCCc2cnoc2-3)C(=O)O1`, the melting point lay within 181 to 183 °C.

In the case of `CCNC(=O)NC[C@H]1CN(c2ccc3c(c2)CCCc2cnoc2-3)C(=O)O1`, the melting point was in the range of 193 to 196 °C.

The compound `COC(=O)NC[C@H]1CN(c2ccc3c(c2)CCCc2cn[nH]c2-3)C(=O)O1` had a melting point of 87 to 93 °C.

As to `CCOC(=O)NC[C@H]1CN(c2ccc3c(c2)CCCc2cn[nH]c2-3)C(=O)O1`, the melting point lay in the range of 122 to 126 °C.

Consider `CN(C)/C=C1/CCCc2cc(N3C[C@H](CNC(=O)OC(C)(C)C)OC3=O)ccc2C1=O` (stereo in doubt), for which the melting point was in the range of 157 to 160 °C.

In turn, `O=C1O[C@@H](CNC(=O)C(F)(F)F)CN1c1ccc2c(c1)CCCc1cnoc1-2` (stereo in doubt) returned a melting point of 203 to 205 °C.

Turning to `CC(=O)NC[C@H]1CN(c2ccc3c(c2)-c2[nH]ncc2CCC3)C(=O)O1` [Example 1, (S)-N-[2-Oxo-3-(1,4,5,6-tetrahydro-1,2-diaza-benzo[e]azulen-9-yl)oxalidin-5-ylmethyl]acetamide], the “Minimum Inhibitory Concentrations M. catarrhalis BC3534” value in the data set with M. catarrhalis BC3534 is over 64 µg/mL. The “Minimum Inhibitory Concentrations E. coli Tol C” value with E. coli Tol C was over 64 µg/mL. For the same compound, the “Minimum Inhibitory Concentrations H. influenzae HI3542” value in the data set with H. influenzae HI3542 was over 64 µg/mL. Moreover, in the data set on E. faecalis MGH-2, the “Minimum Inhibitory Concentrations E. faecalis MGH-2” value is over 64 µg/mL. Further, the “Minimum Inhibitory Concentrations S pyogenes C203” value in the data set with S pyogenes C203 is listed as >64 . . . μg/mL. The “Minimum Inhibitory Concentrations S. aureus UC-76” value in the data set on S. aureus UC-76 is over 64 µg/mL.

Consider `CC(=O)NC[C@H]1CN(c2ccc3c(c2)-c2oncc2CCC3)C(=O)O1` [Example 4, (S)-N-[3-(5,6-dihydro-4H-1-oxa-2-aza-benzo[e]azulen-9-yl)-2-oxo-oxazolidin-5-ylmethyl]acetamide], for which the MIC was 1 mg/L (≈ 2.93 µM) in the data set on M. catarrhalis BC3534; over 64 mg/L in the data set on E. coli Tol C; 2 mg/L (≈ 5.86 µM) in the data set with H. influenzae HI3542; 0.25 mg/L (≈ 0.732 µM) in the data set with E. faecalis MGH-2; 0.125 mg/L (≈ 0.366 µM) in the data set with S pyogenes C203; 0.5 mg/L (≈ 1.46 µM) with S. aureus UC-76.

On to `CC(=O)NC[C@H]1CN(c2ccc3c(c2)CCCc2c(-c4ccc(F)cc4)n[nH]c2-3)C(=O)O1` [Example 95, (S)-N-{3-[3-(4-Fluoro-phenyl)-1,4,5,6-tetrahydro-1,2-diaza-benzo[e]azulen-8-yl]-2-oxo-oxazolidin-5-ylmethyl}-acetamide], for which the MIC with M. catarrhalis BC3534 is 1 mg/L (≈ 2.3 µM); in the data set with E. coli Tol C, over 64 mg/L; with H. influenzae HI3542, 8 mg/L (≈ 18.4 µM); in the data set with E. faecalis MGH-2, 0.5 mg/L (≈ 1.15 µM); in the data set with S pyogenes C203 it was 0.5 mg/L (≈ 1.15 µM); in the data set on S. aureus UC-76, 4 mg/L (≈ 9.21 µM).

For `CC(=O)NC[C@H]1CN(c2ccc3c(c2)CCCc2c(-c4ccncc4)n[nH]c2-3)C(=O)O1` [Example 96, (S)-N-[2-Oxo-3-(3-pyridin-4-yl-1,4,5,6-tetrahydro-1,2-diaza-benzo[e]azulen-8-yl)-oxazolidin-5-ylmethyl]-acetamide], the MIC with M. catarrhalis BC3534 was 2 mg/L (≈ 4.79 µM); with E. coli Tol C, over 64 mg/L; in the data set on H. influenzae HI3542, 4 mg/L (≈ 9.58 µM); with E. faecalis MGH-2, 1 mg/L (≈ 2.4 µM); with S pyogenes C203, 0.25 mg/L (≈ 0.599 µM); with S. aureus UC-76, 2 mg/L (≈ 4.79 µM).

In the case of `CC(=O)NC[C@H]1CN(c2ccc3c(c2)CCCc2c(C(F)(F)F)n[nH]c2-3)C(=O)O1` [Example 97, (S)-N-[2-Oxo-3-(3-trifluoromethyl-1,4,5,6-tetrahydro-1,2-diaza-benzo[e]azulen-8-yl)-oxazolidin-5-ylmethyl]-acetamide], the MIC is 2 mg/L (≈ 4.9 µM) with M. catarrhalis BC3534; over 64 mg/L with E. coli Tol C; over 4 mg/L in the data set with H. influenzae HI3542; 1 mg/L (≈ 2.45 µM) in the data set with E. faecalis MGH-2; 0.5 mg/L (≈ 1.22 µM) in the data set on S pyogenes C203; 1 mg/L (≈ 2.45 µM) with S. aureus UC-76.

With `CC(=O)NC[C@H]1CN(c2ccc3c(c2)CCCc2c(-c4ccccc4)n[nH]c2-3)C(=O)O1` [Example 98, (S)-N-[2-Oxo-3-(3-phenyl-1,4,5,6-tetrahydro-1,2-diaza-benzo[e]azulen-8-yl)-oxazolidin-5-ylmethyl]-acetamide], the MIC in the data set with M. catarrhalis BC3534 is 2 mg/L (≈ 4.8 µM); in the data set with E. coli Tol C it was over 64 mg/L; in the data set on H. influenzae HI3542 it was 8 mg/L (≈ 19.2 µM); in the data set on E. faecalis MGH-2, 0.5 mg/L (≈ 1.2 µM); with S pyogenes C203 it was 0.5 mg/L (≈ 1.2 µM); in the data set on S. aureus UC-76 it was 0.5 mg/L (≈ 1.2 µM).

Consider `CC(=O)NC[C@H]1CN(c2ccc3c(c2)CCCc2c(C)n[nH]c2-3)C(=O)O1` [Example 99, (S)-N-[3-(3-Methyl-1,4,5,6-tetrahydro-1,2-diaza-benzo[e]azulen-8-yl)-2-oxo-oxazolidin-5-ylmethyl]-acetamide], for which the MIC in the data set with M. catarrhalis BC3534 was 4 mg/L (≈ 11.3 µM); in the data set on E. coli Tol C, over 64 mg/L; with H. influenzae HI3542 it was 4 mg/L (≈ 11.3 µM); with E. faecalis MGH-2, 1 mg/L (≈ 2.82 µM); with S pyogenes C203 it was 0.5 mg/L (≈ 1.41 µM); in the data set with S. aureus UC-76, 1 mg/L (≈ 2.82 µM).

`CC(=O)NC[C@H]1CN(c2ccc3c(c2)CCCc2cn(C)nc2-3)C(=O)O1` [Example 122, (S)-N-[3-(2-Methyl-2,4,5,6-tetrahydro-1,2-diaza-benzo[e]azulen-8-yl)-2-oxo-oxazolidin-5-ylmethyl]-acetamide]: the MIC with M. catarrhalis BC3534 is over 64 mg/L; in the data set on E. coli Tol C, over 64 mg/L; in the data set on H. influenzae HI3542 it was over 64 mg/L; in the data set with E. faecalis MGH-2, 1 mg/L (≈ 2.82 µM); in the data set on S pyogenes C203 it was 0.5 mg/L (≈ 1.41 µM); with S. aureus UC-76, 1 mg/L (≈ 2.82 µM).

Regarding `O=C1O[C@@H](COc2ccon2)CN1c1ccc2c(c1)CCCc1cnoc1-2` [Example 159, (R)-3-(5,6-Dihydro-4H-1-oxa-2-aza-benzo[e]azulen-8-yl)-5-(isoxazol-3-yloxymethyl)-oxazolidin-2-one], the MIC came to 2 mg/L (≈ 5.44 µM) in the data set on E. faecalis MGH-2, 2 mg/L (≈ 5.44 µM) in the data set on S pyogenes C203 and 4 mg/L (≈ 10.9 µM) with S. aureus UC-76.

Consider “(S)-N-[3-(2-Benzyl-2,4,5,6-tetrahydro-1,2-diaza-benzo[e]azulen-8-yl)-2-oxo-oxazolidin-5-ylmethyl]-acetamide and (S)-N-[3-(1-Benzyl-1,4,5,6-tetrahydro-1,2-diaza-benzo[e]azulen-8-yl)-2-oxo-oxazolidin-5-ylmethyl]-acetamide [Example 123]”, for which the “Minimum Inhibitory Concentrations M. catarrhalis BC3534” value with M. catarrhalis BC3534 was over 64 µg/mL. The “Minimum Inhibitory Concentrations E. coli Tol C” value in the data set on E. coli Tol C was over 64 µg/mL. For the same compound, the “Minimum Inhibitory Concentrations H. influenzae HI3542” value with H. influenzae HI3542 was over 64 µg/mL.
